According to the supplement of paper PMC4858399:

How the values were obtained:
[1] = tested on: Caenorhabditis elegans N2; assay: lowest effective concentration for larval growth inhibition (size below effect threshold); higher = less potent; conditions: exposure time 48 h
How it was run: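 C. elegans N2 L1 larvae (50 per 96-well) were grown 48 h at 20°C in K-medium with killed bacteria, 1% DMSO and 0.5, 1, 5, 10, 50, 100 or 200 µM chemical. The Biosort measured per-worm extinction as size, and these were log-transformed into well means. The lowest effective concentration is the first dose where the plate-adjusted mean size drops under the 5.665 threshold and stays under it at higher doses.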

[2] = tested on: Caenorhabditis elegans N2; assay: mean nematode size ln(EXT) after 48 h, plate-adjusted (DMSO control set to 6) (ln(EXT), control-adjusted); higher = larger nematodes / less growth inhibition; conditions: exposure time 48 h
How it was run: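 C. elegans N2 larvae, synchronised at L1, grew for 48 h at 20°C in K-medium with killed OP50, 1% DMSO and 0.5–200 µM chemical. Mean size per well was derived from natural-logged Biosort extinction after a growth model removed debris. Adjustment across plates involved subtracting the vehicle control mean and adding 6.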

Structure (SMILES) | lowest effective concentration [1] [µM] | mean nematode size ln(EXT) (ln) ([2]; 0.5 µM) | mean nematode size ln(EXT) (ln) ([2]; 1 µM) | mean nematode size ln(EXT) (ln) ([2]; 5 µM) | mean nematode size ln(EXT) (ln) ([2]; 10 µM) | mean nematode size ln(EXT) (ln) ([2]; 50 µM) | mean nematode size ln(EXT) (ln) ([2]; 100 µM) | mean nematode size ln(EXT) (ln) ([2]; 200 µM)
CCC(C)OC(=O)N1CCCCC1CCO (stereo unspecified) [Icaridin] | > 200 | 5.45 | 5.77 | 5.76 | 6.03 | 5.43 | 5.79 | 5.97
CNC(C)=O [N-Methylacetamide] | > 200 | 6.09 | 6.1 | 6.07 | 6.02 | 6.03 | 6.07 | 5.84
CC1=C(/C=C/C(C)=C/C=C/C(C)=C/CO)C(C)(C)CCC1 [Retinol] | > 200 | 5.92 | 5.89 | 5.91 | 5.75 | 5.9 | 5.84 | 5.68
O=P(O)(O)CCCl [Ethephon] | > 200 | 5.96 | 5.93 | 5.97 | 5.94 | 6.03 | 6.05 | 5.88
CC(C)CCCCCCOC(=O)c1ccc(C(=O)OCCCCCCC(C)C)c(C(=O)OCCCCCCC(C)C)c1 [Triisononyl Trimellitate] | > 200 | 5.94 | 5.89 | 5.94 | 5.86 | 5.81 | 5.73 | 5.68
CC(=O)OC1CC(C)OC(C)O1 (stereo unspecified) [2,6-Dimethyl-1,3-dioxan-4-ol acetate] | > 200 | 5.93 | 5.93 | 5.88 | 5.95 | 6.12 | 5.75 | 5.84
COc1cc(-c2ccc(N)c(OC)c2)ccc1N [3,3'-Dimethoxybenzidine)] | > 200 | 6 | 6.08 | 6.05 | 6.07 | 6.06 | 6.03 | 5.74
CN1CSC(=S)N(C)C1 [Dazomet] | > 200 | 5.73 | 5.62 | 5.46 | 5.71 | 5.78 | 5.55 | 5.83
CCCOC(=O)c1ccc(O)cc1 [Propylparaben] | > 200 | 5.95 | 5.95 | 5.9 | 5.92 | 5.84 | 5.87 | 5.79
Cc1cn([C@H]2C=C[C@@H](CO)O2)c(=O)[nH]c1=O [Stavudine] | > 200 | 5.47 | 5.53 | 5.6 | 5.67 | 5.69 | 5.7 | 5.93
O=[N+]([O-])c1ccc(Cl)cc1 [1-Chloro-4-nitrobenzene] | > 200 | 5.94 | 5.94 | 5.97 | 5.87 | 6.01 | 6 | 5.75
O=C(O)c1ccccc1C(=O)OCc1ccccc1 [Benzyl hydrogen phthalate] | > 200 | 5.72 | 5.73 | 5.79 | 5.84 | 5.73 | 5.67 | 5.74
CCC(C)n1c(=O)[nH]c(C)c(Br)c1=O (stereo unspecified) [Bromacil] | > 200 | 6.06 | 6.23 | 6.18 | 6.3 | 6.1 | 6.23 | 5.81
Cc1cc(O)ccc1Cl [4-Chloro-3-methylphenol] | > 200 | 5.83 | 5.8 | 5.79 | 5.82 | 5.85 | 5.78 | 5.68
CC(Oc1cccc(Cl)c1)C(=O)O (stereo unspecified) [Cloprop] | > 200 | 5.97 | 5.98 | 6.03 | 6.09 | 6.01 | 5.99 | 5.69
c1ccc2occc2c1 [2,3-Benzofuran] | > 200 | 6.06 | 6.1 | 6.03 | 6.13 | 6.02 | 6.03 | 5.78
CCNc1nc(NC(C)C)nc(SC)n1 [Ametryn] | > 200 | 6.09 | 6.82 | 6.12 | 6.27 | 6.45 | 6.38 | 5.72
CN(C)C(=O)Cl [Dimethylcarbamoyl chloride] | > 200 | 5.77 | 5.81 | 5.82 | 5.71 | 5.84 | 5.9 | 5.73
O=C(O)c1ccc2c(c1)nc(C(=O)NC1CCN(C3CC3)CC1)n2Cc1cc(-c2ccc(Cl)s2)on1 | > 200 | 5.76 | 5.81 | 5.71 | 5.87 | 5.82 | 5.69 | 5.86
CC(=O)C(C)=CC1C(C)=CCCC1(C)C (stereo unspecified) | > 200 | 5.84 | 5.8 | 5.9 | 5.86 | 5.84 | 5.93 | 5.79
Nc1cccc(N)c1 [1,3-Benzenediamine] | > 200 | 5.8 | 5.84 | 5.87 | 5.89 | 5.87 | 6 | 5.78
C1CNCCN1 [Piperazine] | > 200 | 5.84 | 5.81 | 5.85 | 5.84 | 5.89 | 5.84 | 5.74
Oc1ccccc1 [Phenol] | > 200 | 6.09 | 5.98 | 6.01 | 5.98 | 5.94 | 5.92 | 6.02
Cc1cccc([N+](=O)[O-])c1C [1,2-Dimethyl-3-nitrobenzene] | > 200 | 5.81 | 5.89 | 5.83 | 5.77 | 5.86 | 5.83 | 5.79
Nc1cccc2c(N)cccc12 [1,5-Diaminonaphthalene] | > 200 | 5.81 | 5.79 | 5.81 | 5.77 | 5.64 | 5.53 | 5.73
Cc1cccc(Nc2cc(Cl)nc(SCC(=O)O)n2)c1C [Pirinixic acid] | > 200 | 6.05 | 5.95 | 5.99 | 5.97 | 5.94 | 5.77 | 5.93
CCCCOCCOCCO [2-(2-Butoxyethoxy)ethanol] | > 200 | 5.78 | 6 | 6.21 | 5.86 | 5.95 | 5.74 | 5.96
